The target of data set [1] is T1, peripheral benzodiazepine receptors (p or PBR sites) (Rattus norvegicus, UniProt P16257).
T1 construct: After decapitation, the kidney was removed and the tissue was homogenized; from tissue; host or cells: kidney membrane homogenate of male Sprague Dawley rats
Nature of the data set: Binding of [3H]Ro5-4864 to peripheral benzodiazepine receptors in rat kidney membranes. Particulars: [3H]Ro5-4864 0.5 nM, 3 h at 0° C., read-out: IC50, concentration which inhibits 50% of the specific binding of [3H]Ro5-4864.

Data set [2] has as its system motor neurons of the facial nucleus. Nature of the data set: Survival of the motor neurons after sectioning the facial nerve in rats aged 4 days. It is filed as in vivo, rat. The conditions noted are these: via oral route, at 10 mg/kg; treated for 7 days; facial nerve lesion in 4 day old rats. The protocol:
Test of Survival of the Motor Neurons after Sectioning the Facial Nerve in Rats Aged 4 Days
After lesion of the facial nerve in immature rats, the motor neurons of the facial nucleus underwent neuronal death by apoptosis. Neural survival was evaluated using histological methods and neuronal counting.
4 day old immature rats were anesthetized with pentobarbital (3 mg/kg by the i.p. route). The right facial nerve was exposed and sectioned, at its outlet from the stylomastoid foramen. After waking up, the young rats were returned to their mothers and treated for 7 days with one or two daily administrations, via oral or intraperitoneal route, at doses ranging from 1 to 10 mg/kg.
7 days after the lesion, the animals were decapitated and the brains frozen in isopentane at −40° C. The entire facial […] was cut with a cryostat into 10 μm sections. The motor neurons were colored with cresyl violet and counted using the Histo™ software (Biocom™).

Marks after values point to notes of the source that are not given here.

Experimental findings from patent publication US7547706B2, “1H-pyrimido[4,5-b]indole derivatives, their preparation and therapeutic use” (Sanofi-Aventis, priority 2005, dated 2009) are described below.

With `CN(C)C(=O)c1nc(-c2ccccc2)nc2c1c1ccc(Cl)cc1n2C` [Compound 2, 7-chloro-N,N,9-trimethyl-2-phenyl-9H-pyrimido[4,5-b]indole-4-carboxamide], the IC50 in data set [1] was determined as 2.2 nM. For the same molecule, the “% increase of neuronal survival” value in data set [2] was “+25* %”. The like results for `CN(C)C(=O)c1nc(-c2ccncc2)nc2c1c1ccc(Cl)cc1n2C` [Compound 15, 7-chloro-N,N,9-trimethyl-2-pyridin-4-yl-9H-pyrimido[4,5-b]indole-4-carboxamide] were, in that order, 3.1 nM and “+40* %”. In the same order, the values of `CN(C)C(=O)Cc1nc(-c2ccccc2)nc2c1c1ccc(Cl)cc1n2C` [Compound 19, 2-(7-chloro-9-methyl-2-phenyl-9H-pyrimido[4,5-b]indol-4-yl)-N,N-dimethylacetamide] are 1.3 nM and “+21* %”. In the case of `CN(C)C(=O)c1nc(-c2cncnc2)nc2c1c1ccc(Cl)cc1n2C` [Compound 43, 7-chloro-N,N,9-trimethyl-2-pyrimidin-5-yl-9H-pyrimido[4,5-b]indole-4-carboxamide], the melting point – broadly, the temperature, or range, at which the solid turns liquid – fell in the range of 322 to 325 °C.

As for `COc1cncc(-c2nc(C(=O)N(C)C)c3c4ccc(Cl)cc4n(C)c3n2)c1` [Compound 44, 7-chloro-2-(5-methoxypyridin-3-yl)-N,N,9-trimethyl-9H-pyrimido[4,5-b]indole-4-carboxamide], the melting point lay within 258 to 260 °C. Still for that read-out and setting: the same measure for `COCc1ccc(-c2nc(C(=O)N(C)C)c3c4ccc(Cl)cc4n(C)c3n2)cn1` [Compound 45, 7-chloro-2-[6-(methoxymethyl)pyridin-3-yl]-N,N,9-trimethyl-9H-pyrimido[4,5-b]indole-4-carboxamide]: 239 to 241 °C; for `Cc1nc(-c2nc(C(=O)N(C)C)c3c4ccc(Cl)cc4n(C)c3n2)cs1` [Compound 46, 7-chloro-N,N,9-trimethyl-2-(2-methyl-1,3-thiazol-4-yl)-9H-pyrimido[4,5-b]indole-4-carboxamide]: 256 to 258 °C.
